{
  "source": "patent US8815776B2",
  "about": "“Herbicidal compositions and method of use thereof” (Proactive, LLC, priority 2011, dated 2014)",
  "assay": "Solubility of prodiamine in solvents",
  "type": "physicochemical",
  "description": "The aprotic solvent is preferably a pyrrolidone such as NMP, though one or more of dimethylsulfoxide (DMSO), dimethylformamide, and gamma-Butyrolactone alone or in mixtures, including mixtures with NMP, are useful. DMSO and gamma-Butyrolactone dissolve 0.24 to 0.25 grams prodiamine per gram solvent. NMP dissolves 0.68 grams prodiamine per gram solvent. The aprotic solvent is the primary solvent in most embodiments of the EC.\nThere are a number of solvents that are not suitable and would be included only to change the composition.\nFatty amides, also called “fatty acid solvents” in this application, are amides formed from a fatty acid and an amine, of which many are known. Preferred are di-substituted fatty acid amides, which include as non-limiting examples N,N-dimethylcaprylamide (available from Cognis as Agnique™ KE-3658), and […] (available as Halcomid™ M8-10). These compounds can fully or partially replace aprotic solvents, and the solvating capacity approaches that of less-preferred aprotic solvents such as DMSO and gamma-Butyrolactone, that is, 0.24 to 0.25 grams prodiamine per gram solvent. A mixture of C8 and C10 fatty acid dimethylamide, (CAS 1118-92-9 and 14433-76-2) are useful.",
  "data": [
    {"compound": "CCCN(CCC)c1c([N+](=O)[O-])cc(C(F)(F)F)c(N)c1[N+](=O)[O-]", "note": "[prodiamine, N3,N3-di-n-propyl-2,4-dinitro-6-(trifluoromethyl)-m-phenylenediamine]", "values": [
      {"measurement": "Solubility, g prodiamine/g solvent", "setting": "solvent Aromatic 150 (Aromatic Hydrocarbon)", "result": 0.080, "unit": "g prodiamine/g solvent"},
      {"measurement": "Solubility, g prodiamine/g solvent", "setting": "solvent Aromatic 200 (Aromatic Hydrocarbon)", "result": 0.070, "unit": "g prodiamine/g solvent"},
      {"measurement": "Solubility, g prodiamine/g solvent", "setting": "solvent Carbitol TM (Diethylene glycol monomethyl ether)", "result": 0.010, "unit": "g prodiamine/g solvent"},
      {"measurement": "Solubility, g prodiamine/g solvent", "setting": "solvent DEGEE (Diethylene glycol monoethyl ether)", "result": 0.050, "unit": "g prodiamine/g solvent"},
      {"measurement": "Solubility, g prodiamine/g solvent", "setting": "solvent Glycol DPM (Dipropylene glycol methyl ether)", "result": 0.008, "unit": "g prodiamine/g solvent"},
      {"measurement": "Solubility, g prodiamine/g solvent", "setting": "solvent Glycol Ether EB (Diethylene glycol monobutyl ether)", "result": 0.020, "unit": "g prodiamine/g solvent"},
      {"measurement": "Solubility, g prodiamine/g solvent", "setting": "solvent Jefsol 1555 (Proprietary Solvent (Carbonate))", "result": 0.004, "unit": "g prodiamine/g solvent"},
      {"measurement": "prodiamine dissolved per gram solvent", "setting": "solvent NMP", "result": "0.68 grams prodiamine per gram solvent"}
    ]}
  ]
}
